The target of one assay is mushroom tyrosinase (Agaricus bisporus, UniProt C7FF04). Put plainly: In vitro mushroom tyrosinase inhibition (L-DOPA substrate). In kind it is biochemical. The note with it: 475 nm, read-out: IC50 (μM) ± SD, inhibitory tyrosinase activity. The procedure: The mushroom tyrosinase inhibitory activity was determined according to previous described method. Briefly, 168 μl of phosphate buffer (0.1 M, pH 6.8), 10 μl of mushroom tyrosinase (0.5 mg/ml, Sigma Chemical, St. Louis, MO) and 2 μl of the inhibitor solution were placed in the wells of a 96-well micro plate. After pre-incubation for 20 min at 37 °C, 20 μl of 2.0 mg/ml L-DOPA (3,4-dihydroxyphenylalanine, Sigma Chemical, St. Louis, MO) was added and the enzyme activity was measured at 475 nm every 60 s for 180 s in a Microplate Reader (Bio-Rad Laboratories, Inc., Hercules, CA). Kojic acid and phosphate buffer were respectively used as positive and negative control. The extent of inhibition by the test compounds was expressed as the percentage of concentration necessary to achieve 50% inhibition (IC50). The percentage of inhibition was calculated as follows: inhibitory rate (%) = [Ac − At)/Ac] × 100. Ac is the absorbance of the negative control and At is the absorbance of the test compound. Each concentration was analysed in three independent experiments run in triplicate. The IC50 values were determined by the data analysis software GraphPad Prism 8 (La Jolla, CA).
mushroom tyrosinase, sequence (C7FF04 1-392): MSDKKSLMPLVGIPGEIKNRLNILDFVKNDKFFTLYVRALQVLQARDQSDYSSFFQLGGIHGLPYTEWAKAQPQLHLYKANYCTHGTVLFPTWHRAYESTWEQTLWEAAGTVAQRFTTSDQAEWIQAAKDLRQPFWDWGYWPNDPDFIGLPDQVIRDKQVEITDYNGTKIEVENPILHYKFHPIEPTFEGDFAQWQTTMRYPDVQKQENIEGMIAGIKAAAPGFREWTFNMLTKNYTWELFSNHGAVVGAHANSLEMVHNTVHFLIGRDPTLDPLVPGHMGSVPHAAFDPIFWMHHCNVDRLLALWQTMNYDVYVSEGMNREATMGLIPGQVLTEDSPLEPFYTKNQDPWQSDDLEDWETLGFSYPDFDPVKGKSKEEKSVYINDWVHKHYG
The tyrosinase inhibition measurements of compounds 6a–6x were carried out using L-DOPA as substrate. Kojic acid was selected as a positive control compound. […]. […] Moreover, inhibitory activity of compound with hydroxyl group at papa position is better than the inhibitory activity of compound with hydroxyl group at meta position, and inhibitory activity of compound with hydroxyl group at meta position is better than the inhibitory activity of compound with hydroxyl group at ortho position. […]. […] In addition, with the increase of atomic radius, the inhibitory activity gradually decreases. (3) The inhibitory activity of alkoxy substituted compound is better than that of alkyl substituted compound. (4) Comparing the tyrosinase inhibitory activity of compounds with halogen atom (6b–6d, 6q–6s) and compounds with methyl or methoxy (6e–6f, 6t–6u), when the hydrogen (R^2) was replaced by the methyl (R^2), the inhibitory activity was decreased.

Assay [1] is described as follows: ABTS radical cation scavenging activity assay. Particulars: 734 nm; read-out: ABTS+/IC50 (μM) ± SD. The procedure:
ABTS free radical scavenging activity was performed according to the procedure described by Zhang et al.[40] Test solution of ABTS decolourisation assay was prepared by mixing 2.45 mM potassium persulfate and 7 mM ABTS at 8:12 volume/volume ratio. The working solution was kept in the dark at room temperature for 12–18 h. Before ABTS radical scavenging test, the ABTS test solution was diluted with DMSO to absorbance of 0.7 (±0.02) at 734 nm. One millilitre of diluted ABTS test solution was added to 10 μl of DMSO or test sample. After initial mixing, the working solution was kept in the dark at room temperature for 2–6 min, and the absorbance was measured at 734 nm. This test was carried out in triplicate. DMSO was used as a control. Ascorbic acid was used as antioxidant standard for comparison of the activity. The absorbance of test samples was calculated by the following formula. ABTS scavenging ability %=absorbance of standard−absorbance of sample/absorbance of standard×100.

A short description of assay [2]: DPPH free radical scavenging activity assay. The note with it: DPPH 150 μM, 30 min, 517 nm; read-out: DPPH/IC50 (μM) ± SD. Here is the method: The anti-oxidation effect on DPPH radical was determined by a slightly modified version of a previously described DPPH radical scavenging assay. Reaction mixtures consisted of 100 μl of DPPH (150 μM), 20 μl of increasing concentration of test compounds and the volume was adjusted to 200 μl in each well with DMSO. The assay solution was then incubated at room temperature (25 °C) for 30 min in the dark. After the incubation, absorbance at 517 nm was measured by using UV-2600 spectrophotometer. The experiments were undertaken in triplicate. DMSO was used as a control. Ascorbic acid was used as antioxidant standard for comparison of the activity. The calculation of DPPH radical scavenging activity was followed by this formula: DPPH radical scavenging activity %=absorbance of standard−absorbance of sample/Absorbance of standard×100
Background: DPPH is a stable violet radical that fades when it is reduced.

The record followed here is paper PMC11983575, “Study on the synthesis and biological activity of kojic acid triazol thiosemicarbazide Schiff base derivatives” (Journal of Enzyme Inhibition and Medicinal Chemistry, 2025).

Consider “2-(4-((1-((5-Hydroxy-4-oxo-4H-pyran-2-yl)methyl)-1H-1,2,3-triazol-5-yl)methoxy)-3-methoxybenzylidene)hydrazinecarbothioamide [Compound 6n]”, for which the IC50 on mushroom tyrosinase worked out at 8.4 ± 0.009 µM; in assay [1], 44.4 ± 0.068 µM; in assay [2], 176.2 ± 0.061 µM.
Regarding “2-(4-((1-((5-Hydroxy-4-oxo-4H-pyran-2-yl)methyl)-1H-1,2,3-triazol-5-yl)methoxy)-3-methylbenzylidene)hydrazinecarbothioamide [Compound 6o]”, the IC50 at mushroom tyrosinase was determined as 12.38 ± 0.014 µM; in assay [1], 17.95 ± 0.048 µM; in assay [2], 193.9 ± 0.022 µM.
On the same counts, the results for “2-(4-((1-((5-Hydroxy-4-oxo-4H-pyran-2-yl)methyl)-1H-1,2,3-triazol-5-yl)methoxy)benzylidene)hydrazinecarbothioamide [Compound 6m]” are 1.58 ± 0.092 µM, 36.17 ± 0.018 µM and 195 ± 0.038 µM.
